Experimental findings from patent US10016383B2, “Inhibitors of metallo-β-lactamase-enzymes” (McMaster University, priority 2013, dated 2018) are described below.

The target in one experiment is NDM-1 (Klebsiella pneumoniae, UniProt C7C422). The experiment in a line: IC50 enzyme inhibition assay, nitrocefin reporter substrate. Details: All β-lactamase overexpression constructs were generated without the leader peptide in a pET-28b plasmid containing a N-terminal His Tag; His tag (N, cleaved yes); SUMO (implied by the use of SUMO protease) (N, cleaved yes); made in house; host or cells: E. coli BL21(DE3). In kind it is biochemical. As for the experimental part: Enzyme (NDM-1, 5 nM; VIM-2, 500 pM; CTX-M-15, 500 pM; KPC-2, 5 nM; OXA-48, 1 nM; TEM-1, 100 pM; ACE, 50 nM) was mixed with 30 μM nitrocefin (100 μM nitrocefin for TEM-1; 250 µM furanacryloyl-L-phenylalanylglycylglycine [FAPGG] for ACE^24) after a 5-10 minute preincubation with AM-A. Metallo-enzymes were supplemented with 10 μM ZnSO4. Assays were read in 96-well microplate format at 490 nm using a Spectramax reader (Molecular Devices) at 30-37° C.
E. coli strain BW25113 was modified by deletion of the bamB and tolC genes so as to increase permeability to and reduce efflux of small molecules. This strain was then further modified by the single-copy chromosomal insertion of the blaNDM-1 gene under control of the pLac promoter. Microbial natural product extracts were screened against this strain in the presence of sublethal ¼ MIC meropenem. AM-A was purified from a hit extract and its structure elucidated by NMR, mass spectrometry and polarimetry. IC50 values for AM-A were determined using nitrocefin (for MBLs and Ser BLs) and furanacryloyl-L-phenylalanylglycylglycine (for ACE)^21 as reporter substrates against the following purified enzymes: MBLs IMP-7, VIM-2, and NDM-1; SBLs CTX-M-15, KPC-2, OXA-48, and TEM-1; as well as ACE from rabbit lung. […] FIC values were determined using standard methods^27. […]

The next experiment concerns the target T1, ACE (Oryctolagus cuniculus, UniProt P12822).
T1 construct: as well as ACE from rabbit lung; from tissue; host or cells: rabbit lung
T1 sequence (P12822 34-1310): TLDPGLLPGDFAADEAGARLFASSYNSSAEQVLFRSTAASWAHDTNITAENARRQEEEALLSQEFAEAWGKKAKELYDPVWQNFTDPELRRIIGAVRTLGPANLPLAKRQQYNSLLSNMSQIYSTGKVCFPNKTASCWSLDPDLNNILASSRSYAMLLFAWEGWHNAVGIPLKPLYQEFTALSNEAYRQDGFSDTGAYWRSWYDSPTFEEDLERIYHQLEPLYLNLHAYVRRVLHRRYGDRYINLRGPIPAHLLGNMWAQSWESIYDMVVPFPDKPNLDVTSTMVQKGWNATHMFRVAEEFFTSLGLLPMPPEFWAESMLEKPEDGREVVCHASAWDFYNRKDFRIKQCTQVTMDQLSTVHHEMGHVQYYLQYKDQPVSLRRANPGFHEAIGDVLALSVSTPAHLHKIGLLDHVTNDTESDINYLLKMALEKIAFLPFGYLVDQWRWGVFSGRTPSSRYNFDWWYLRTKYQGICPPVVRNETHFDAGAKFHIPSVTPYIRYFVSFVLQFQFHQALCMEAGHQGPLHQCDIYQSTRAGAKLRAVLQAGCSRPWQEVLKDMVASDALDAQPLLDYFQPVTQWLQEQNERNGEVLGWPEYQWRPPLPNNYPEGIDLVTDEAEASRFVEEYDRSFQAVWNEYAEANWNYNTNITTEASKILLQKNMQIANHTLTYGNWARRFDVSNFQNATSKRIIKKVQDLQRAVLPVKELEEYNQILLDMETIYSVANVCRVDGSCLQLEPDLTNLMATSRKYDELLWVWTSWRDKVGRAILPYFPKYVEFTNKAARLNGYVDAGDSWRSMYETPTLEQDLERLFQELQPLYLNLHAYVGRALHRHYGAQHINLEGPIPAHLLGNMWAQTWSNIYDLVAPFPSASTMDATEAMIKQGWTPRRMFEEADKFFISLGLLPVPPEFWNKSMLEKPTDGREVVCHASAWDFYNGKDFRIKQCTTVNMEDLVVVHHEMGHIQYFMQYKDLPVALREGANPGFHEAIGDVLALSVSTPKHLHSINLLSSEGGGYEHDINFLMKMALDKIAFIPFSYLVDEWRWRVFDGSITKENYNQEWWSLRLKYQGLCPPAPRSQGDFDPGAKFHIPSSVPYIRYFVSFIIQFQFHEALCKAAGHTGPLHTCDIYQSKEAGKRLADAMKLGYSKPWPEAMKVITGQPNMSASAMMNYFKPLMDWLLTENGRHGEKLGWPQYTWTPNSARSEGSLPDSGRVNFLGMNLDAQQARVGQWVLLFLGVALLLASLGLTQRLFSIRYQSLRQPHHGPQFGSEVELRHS
The experiment is described as follows: Incubation of AM-A with metalloenzymes in Zn2+-depleted buffer. The class given is biochemical, rabbit. Particulars: extended incubation, AM-A 0.5 mM. As for the experimental part:
Enzyme (500 nM) was incubated with AM-A (500 μM) for 10 minutes. 20 μL of the above was diluted with 180 μL nitrocefin or FAPGG substrate for the following final concentrations: Enzyme (50 nM), FAPGG (50 μM)/nitrocefin (20 μM), AM-A (50 μM). Buffer (50 mM HEPES pH 7.5, 300 mM NaCl) was stirred overnight with 2 g/100 mL Chelex-100 (Biorad; Richmond, Calif.). Assays were read in 96-well microplate format at 490 nm using a Spectramax reader (Molecular Devices) at 37° C.

NDM-1, sequence (C7C422 29-270 limits assumed): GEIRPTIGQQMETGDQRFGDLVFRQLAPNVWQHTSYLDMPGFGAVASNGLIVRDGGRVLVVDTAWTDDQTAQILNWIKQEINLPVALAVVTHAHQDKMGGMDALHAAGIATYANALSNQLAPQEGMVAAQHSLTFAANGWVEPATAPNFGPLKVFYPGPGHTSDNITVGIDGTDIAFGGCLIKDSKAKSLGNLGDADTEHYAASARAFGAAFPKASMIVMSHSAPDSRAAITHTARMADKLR

With `N[C@H](CN[C@H](CN[C@@H](CC(=O)O)C(=O)O)C(=O)O)C(=O)O` [AM-A, aspergillomarasmine A], the “in vitro inhibition of NDM-1” value at NDM-1 is listed as “potent in vitro dose-dependent inhibition”. The same compound registered an inhibition at 500 µM at ACE of around 50%.
